Laboratory results published in PubChem BioAssay AID2060609 (Molecular Pharmacology Branch, DTP, NCI, 2025).

Test system: 855422-203-R-J1-PDC complex spheroids, viability
Assay: Anticancer human tumor 855422-203-R-J1-PDC patient-derived bladder carcinoma cell line growth inhibition [CLK]
Conditions: for IC50: curve of first compound; for viability, T/C: stronger effect = lower value
How it was run: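 Patient-derived tumor cells grown as complex spheroids with HUVEC endothelial cells and mesenchymal stem cells, treated with drug combinations. Concentrations descend in half-log steps from near clinical Cmax, or from 10 microM if Cmax unknown.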
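Also: spheroids exposed to drugs for seven days before readout.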
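For viability, T/C in this document: 100% = DMSO vehicle control wells.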

Work on `NC(=O)C(=Cn1cnc(-c2cc(C(F)(F)F)cc(C(F)(F)F)c2)n1)c1cncnc1` + CNC(=O)c1ccc(Nc2nc(OC3CCCC3)c3c(-c4ccc5nc(C)oc5c4)c[nH]c3n2)c(OC)c1 yielded an IC50 (second compound 0.0316 µM) of 69.3 nM, an IC50 (second compound 0.1 µM) of under 9.49 nM and an IC50 (second compound 0.316 µM) of under 9.49 nM. The IC50 (second compound 1 µM) was under 9.49 nM, the IC50 (second compound 3.16 µM) was under 9.49 nM and the IC50 (second compound 10 µM) was under 9.49 nM. It also gave a viability, T/C (second compound 0.0316 µM, first compound 0.00949 µM) of 123%, a viability, T/C (second compound 0.0316 µM, first compound 0.03 µM) of 150% and a viability, T/C (second compound 0.0316 µM, first compound 0.0949 µM) of 17.6%. For the same molecule, the viability, T/C (second compound 0.0316 µM, first compound 0.3 µM) was 10.1%, the viability, T/C (second compound 0.0316 µM, first compound 0.949 µM) was 9.34% and the viability, T/C (second compound 0.0316 µM, first compound 3 µM) was 3.87%. The viability, T/C (second compound 0.1 µM, first compound 0.00949 µM) was 44.8%, the viability, T/C (second compound 0.1 µM, first compound 0.03 µM) was 50.1% and the viability, T/C (second compound 0.1 µM, first compound 0.0949 µM) was 12.1%. For the same molecule, the viability, T/C (second compound 0.1 µM, first compound 0.3 µM) was 6.75%, the viability, T/C (second compound 0.1 µM, first compound 0.949 µM) was 5.9% and the viability, T/C (second compound 0.1 µM, first compound 3 µM) was 2.36%. The viability, T/C (second compound 0.316 µM, first compound 0.00949 µM) was 20.1%, the viability, T/C (second compound 0.316 µM, first compound 0.03 µM) was 13.7% and the viability, T/C (second compound 0.316 µM, first compound 0.0949 µM) was 12.3%. For the same molecule, the viability, T/C (second compound 0.316 µM, first compound 0.3 µM) was 6.63%, the viability, T/C (second compound 0.316 µM, first compound 0.949 µM) was 3.98% and the viability, T/C (second compound 0.316 µM, first compound 3 µM) was 3%. For the same molecule, the viability, T/C (second compound 1 µM, first compound 0.00949 µM) was 18.6%, the viability, T/C (second compound 1 µM, first compound 0.03 µM) was 10.4% and the viability, T/C (second compound 1 µM, first compound 0.0949 µM) was 9.1%. The viability, T/C (second compound 1 µM, first compound 0.3 µM) was 3.59%, the viability, T/C (second compound 1 µM, first compound 0.949 µM) was 1.47% and the viability, T/C (second compound 1 µM, first compound 3 µM) was 0.79%. The viability, T/C (second compound 3.16 µM, first compound 0.00949 µM) was 14.3%, the viability, T/C (second compound 3.16 µM, first compound 0.03 µM) was 14% and the viability, T/C (second compound 3.16 µM, first compound 0.0949 µM) was 6.09%. For the same molecule, the viability, T/C (second compound 3.16 µM, first compound 0.3 µM) was 2.12%, the viability, T/C (second compound 3.16 µM, first compound 0.949 µM) was 1.2% and the viability, T/C (second compound 3.16 µM, first compound 3 µM) was 1.63%. The viability, T/C (second compound 10 µM, first compound 0.00949 µM) was 14.7%, the viability, T/C (second compound 10 µM, first compound 0.03 µM) was 13.1% and the viability, T/C (second compound 10 µM, first compound 0.0949 µM) was 7.07%. It also gave a viability, T/C (second compound 10 µM, first compound 0.3 µM) of 1.75%, a viability, T/C (second compound 10 µM, first compound 0.949 µM) of 1.33% and a viability, T/C (second compound 10 µM, first compound 3 µM) of 0.47%.
